Reference: PubChem BioAssay (NCI)
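Briefly, cells in 96-well plates were exposed to five compound concentrations for 48 h, and endpoints were estimated by linear interpolation. The concentration for 50% growth inhibition is given as GI50. TGI: total growth inhibition.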 Peptide text beside a SMILES is read from it.

Key:
Assay in all cases: growth of human tumour cells (NCI), 48 h
[1] = tested on: SNB-19 CNS
[2] = tested on: HT29 colon
[3] = tested on: SNB-75 CNS
[4] = tested on: HCT-116 colon
[5] = tested on: HL-60(TB) leukemia
[6] = tested on: UACC-257 melanoma
[7] = tested on: NCI-H23 lung
[8] = tested on: DU-145 prostate
[9] = tested on: SF-295 CNS
[10] = tested on: MALME-3M melanoma
[11] = tested on: SK-MEL-2 melanoma
[12] = tested on: MCF7 breast
[13] = tested on: A498 renal
[14] = tested on: TK-10 renal
[15] = tested on: K-562 leukemia
[16] = tested on: SK-MEL-5 melanoma
[17] = tested on: OVCAR-8 ovarian
[18] = tested on: SR leukemia
[19] = tested on: HCC-2998 colon
[20] = tested on: IGROV1 ovarian
[21] = tested on: KM12 colon
[22] = tested on: NCI-H522 lung
[23] = tested on: UACC-62 melanoma
[24] = tested on: SF-268 CNS
[25] = tested on: MDA-MB-435
[26] = tested on: OVCAR-4 ovarian
[27] = tested on: HS 578T breast
[28] = tested on: MDA-MB-231 breast
[29] = tested on: EKVX NSCLC
[30] = tested on: MOLT-4 leukemia
[31] = tested on: SW-620 colon
[32] = tested on: COLO 205 colon
[33] = tested on: SK-MEL-28 melanoma
[34] = tested on: ACHN renal
[35] = tested on: A549 NSCLC
[36] = tested on: OVCAR-3 ovarian
[37] = tested on: LOX IMVI melanoma
[38] = tested on: CCRF-CEM leukemia
[39] = tested on: OVCAR-5 ovarian
[40] = tested on: HOP-92 NSCLC
[41] = tested on: 786-0 renal
[42] = tested on: NCI-H460 lung
[43] = tested on: U251 CNS
[44] = tested on: PC-3 prostate
[45] = tested on: SN12C renal
[46] = tested on: BT-549 breast
[47] = tested on: RXF 393 renal
[48] = tested on: NCI/ADR-RES ovarian
[49] = tested on: NCI-H226 lung
[50] = tested on: RPMI-8226 leukemia
[51] = tested on: UO-31 renal
[52] = tested on: HOP-62 NSCLC
[53] = tested on: SK-OV-3 ovarian
[54] = tested on: SF-539 CNS
[55] = tested on: HCT-15 colon
[56] = tested on: CAKI-1 renal
[57] = tested on: T-47D breast
[58] = tested on: M14 melanoma
[59] = tested on: MDA-N

## CC/C(=C\c1ccc(Cl)c(Cl)c1)[N+](=O)[O-]
[1]
  TGI: 5.7 µM
[2]
  TGI: > 100 µM
[3]
  TGI: > 100 µM
[4]
  TGI: > 100 µM
[5]
  TGI: 5.67 µM
[6]
  TGI: 3.58 µM
[7]
  TGI: 5.21 µM
[8]
  TGI: 5.39 µM
[9]
  TGI: 5.36 µM
[10]
  TGI: 4.11 µM
[11]
  TGI: 4.85 µM
[12]
  TGI: 3.48 µM
[13]
  TGI: 24.1 µM
[14]
  TGI: 4.04 µM
[15]
  TGI: 47.4 µM
[16]
  TGI: 3.92 µM
[17]
  TGI: 3.4 µM
[18]
  TGI: 3.61 µM
[19]
  TGI: 3.59 µM
[20]
  TGI: 3.31 µM
[21]
  TGI: 10.4 µM
[22]
  TGI: 3.49 µM
[23]
  TGI: 3.89 µM
[24]
  TGI: 4.57 µM
[25]
  TGI: 3.1 µM
[26]
  TGI: 7.57 µM
[27]
  TGI: > 100 µM
[28]
  TGI: 5.4 µM
[29]
  TGI: 7.88 µM
[30]
  TGI: 2.01 µM
[31]
  TGI: > 100 µM

## Cn1ncnc1C1c2n[nH]c(=O)c3cc(F)cc(c23)NC1c1ccc(F)cc1 (stereo not drawn)
[32]
  GI50: > 100 µM
  TGI: > 100 µM
[33]
  GI50: > 100 µM
  TGI: > 100 µM
[1]
  GI50: 11.2 µM
  TGI: > 100 µM
[2]
  GI50: > 100 µM
  TGI: > 100 µM
[3]
  GI50: 9.8 µM
  TGI: > 100 µM
[34]
  GI50: 29.4 µM
  TGI: > 100 µM
[35]
  GI50: 7.9 µM
  TGI: > 100 µM
[4]
  GI50: 25.8 µM
  TGI: > 100 µM
[36]
  GI50: > 100 µM
  TGI: > 100 µM
[5]
  GI50: 4.86 µM
  TGI: > 100 µM
[37]
  GI50: 6.63 µM
  TGI: > 100 µM
[6]
  GI50: > 100 µM
  TGI: > 100 µM
[7]
  TGI: > 100 µM
[8]
  GI50: 4.14 µM
  TGI: > 100 µM
[9]
  GI50: 1.01 µM
  TGI: > 100 µM
[10]
  GI50: > 100 µM
  TGI: > 100 µM
[11]
  GI50: > 100 µM
  TGI: > 100 µM
[38]
  GI50: 3.13 µM
  TGI: > 100 µM
[39]
  GI50: > 100 µM
  TGI: > 100 µM
[40]
  GI50: 39.9 µM
  TGI: > 100 µM
[12]
  GI50: 1.57 µM
  TGI: > 100 µM
[13]
  GI50: 5 µM
  TGI: > 94.3 µM
[41]
  GI50: > 100 µM
  TGI: > 100 µM
[14]
  GI50: > 34.2 µM
  TGI: > 100 µM
[15]
  GI50: > 100 µM
  TGI: > 100 µM
[16]
  GI50: > 100 µM
  TGI: > 100 µM
[42]
  GI50: 0.193 µM
  TGI: > 100 µM
[43]
  GI50: 2.18 µM
  TGI: > 100 µM
[44]
  GI50: > 100 µM
  TGI: > 100 µM
[45]
  GI50: 4.43 µM
  TGI: > 100 µM
[46]
  GI50: > 69.9 µM
  TGI: > 100 µM
[17]
  GI50: > 100 µM
  TGI: > 100 µM
[47]
  GI50: 22.2 µM
  TGI: > 100 µM
[18]
  GI50: < 0.0265 µM
  TGI: > 62.5 µM
[19]
  GI50: > 100 µM
  TGI: > 100 µM
[20]
  GI50: > 100 µM
  TGI: > 100 µM
[21]
  GI50: > 100 µM
  TGI: > 100 µM
[22]
  GI50: > 100 µM
  TGI: > 100 µM
[48]
  GI50: > 100 µM
  TGI: > 100 µM
[23]
  GI50: > 100 µM
  TGI: > 100 µM
[49]
  GI50: > 100 µM
  TGI: > 100 µM
[50]
  GI50: > 100 µM
  TGI: > 100 µM
[51]
  GI50: 11.9 µM
  TGI: > 100 µM
[52]
  GI50: 7.79 µM
  TGI: > 100 µM
[53]
  GI50: > 42.7 µM
  TGI: > 100 µM
[24]
  GI50: 3.3 µM
  TGI: > 100 µM
[25]
  GI50: > 100 µM
  TGI: > 100 µM
[26]
  GI50: 12.7 µM
  TGI: > 100 µM
[27]
  GI50: > 100 µM
  TGI: > 100 µM
[54]
  GI50: 5.39 µM
  TGI: > 100 µM
[28]
  GI50: > 100 µM
  TGI: > 100 µM
[30]
  GI50: 3.25 µM
  TGI: > 100 µM
[55]
  GI50: > 100 µM
  TGI: > 100 µM
[56]
  GI50: 9.37 µM
  TGI: > 100 µM
[31]
  GI50: > 41 µM
  TGI: > 100 µM
[57]
  GI50: > 100 µM
  TGI: > 100 µM
[58]
  GI50: 3.52 µM
  TGI: > 100 µM

## CC[C@H](C)[C@H]1NC(=O)[C@@H](NC(=O)[C@@H](CC(C)C)N(C)C(=O)C2CCCN2C(=O)[C@H](C)O)[C@@H](C)OC(=O)[C@H](Cc2ccccc2)N(C)C(=O)[C@@H]2CCCN2C(=O)[C@H](CC(C)C)NC(=O)[C@@H](C)C(=O)[C@H](C(C)C)OC(=O)C[C@@H]1O (stereo partly drawn)
[32]
  TGI: 0.0769 µM
[59]
  TGI: 0.109 µM
[33]
  TGI: 0.00828 µM
[1]
  TGI: < 0.00625 µM
[2]
  TGI: 0.0205 µM
[3]
  TGI: < 0.00625 µM
[34]
  TGI: < 0.00625 µM
[4]
  TGI: 0.00642 µM
[36]
  TGI: 0.0113 µM
[5]
  TGI: > 62.5 µM
[37]
  TGI: < 0.00625 µM
[6]
  TGI: < 0.00625 µM
[9]
  TGI: 0.0134 µM
[10]
  TGI: 0.0213 µM
[11]
  TGI: 0.0954 µM
[38]
  TGI: > 62.5 µM
[39]
  TGI: 0.075 µM
[12]
  TGI: 0.0641 µM
[13]
  TGI: 0.0508 µM
[41]
  TGI: 0.0119 µM
[14]
  TGI: 0.00848 µM
[15]
  TGI: > 62.5 µM
[42]
  TGI: < 0.00625 µM
[44]
  TGI: 0.119 µM
[45]
  TGI: > 14.5 µM
[46]
  TGI: < 0.00625 µM
[17]
  TGI: 0.0461 µM
[47]
  TGI: 0.0179 µM
[19]
  TGI: 0.00678 µM
[21]
  TGI: < 0.00625 µM
[22]
  TGI: < 0.00625 µM
[48]
  TGI: 1.6 µM
[23]
  TGI: < 0.00625 µM
[49]
  TGI: 0.00705 µM
[51]
  TGI: < 0.00625 µM
[52]
  TGI: 0.0639 µM
[53]
  TGI: 0.101 µM
[24]
  TGI: 0.00762 µM
[26]
  TGI: 0.0078 µM
[27]
  TGI: 0.0114 µM
[29]
  TGI: 0.524 µM
[30]
  TGI: > 62.5 µM
[55]
  TGI: 0.556 µM
[31]
  TGI: > 62.5 µM
[58]
  TGI: 0.0257 µM

## CC(=O)NC(C(=O)NC(C)C(=O)N1CCCC1C(=O)O)C(C)C (stereo not drawn) (Ac-Val-Ala-Pro-OH; configuration not given here)
[11]
  GI50: 83.8 µg/mL
[38]
  GI50: 89.9 µg/mL
[45]
  GI50: 46.6 µg/mL
[27]
  GI50: 65.6 µg/mL
